Measurements from US20260274799A1, “HETEROCYCLIC DERIVATIVES, COMPOSITIONS AND USES THEREOF” (DANATLAS PHARMACEUTICALS CO., LTD., priority 2023, published 2026).

Target: T1, PPARγ-LBD (UniProt ID: P37231-2) (Homo sapiens, UniProt P37231)
T1 construct: PPARγ-LBD (UniProt ID: P37231-2) was expressed and purified in insect system; made in house
T1 sequence (P37231 238-503 limits assumed): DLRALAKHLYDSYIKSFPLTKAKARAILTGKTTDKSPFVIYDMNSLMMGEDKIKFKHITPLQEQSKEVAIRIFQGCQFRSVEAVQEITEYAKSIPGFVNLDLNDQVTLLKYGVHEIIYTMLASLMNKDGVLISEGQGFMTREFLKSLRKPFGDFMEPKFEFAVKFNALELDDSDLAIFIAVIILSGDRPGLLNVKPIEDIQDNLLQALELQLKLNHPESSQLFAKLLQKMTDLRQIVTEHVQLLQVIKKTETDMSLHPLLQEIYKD
Assay: PPARγ-SMRT recruitment assay (TR-FRET)
Type: biochemical
Conditions: for Emax: 1 h, max value of % Activation, high control 10 uM control compound, low control 1% DMSO, read-out: Top %; for EC50: TR-FRET, SMRT peptide recruitment to PPARγ-LBD, 120 min pre-incubation
Description: PPARγ TR-FRET assay was initiated to evaluate potential activatory effect of the compounds of the present disclosure for SMRT recruitment to PPARγ protein. PPARγ-LBD (UniProt ID: P37231-2) was expressed and purified in insect system and stored at −80° C. in aliquots. Biotinylated SMRT peptide was synthesized (Biotin-[…]). 5 μL protein solution mixture consisting of 10 nM PPARγ-LBD and 2 nM Anti-His Eu (Cisbio, 61HISKLA) in assay buffer (25 mM HEPES pH7.4, 25 mM KCl, 1 mM EDTA, 0.01% BSA, 0.01% Tween-20, 1 mM TCEP) was added to 384-well plates containing duplicate 10-point dose response titration of compounds in 5 μL assay buffer (1% f.c. DMSO(v/v)). After 120 min pre-incubation at room temperature, 5 μL peptide solution mixture consisting of 50 nM Biotin-SMRT peptide and 25 nM Streptavidin-XL665 (Cisbio, 610SAXLA) added to plates. Plates were incubated for 60 min. and read in CLARIOstar Plus plate reader with Ex/Em 620 nm/[…]. Average TR-FRET ratio of high control (Wells with 10 uM control compound) was calculated as High Control (HC). Average TR-FRET ratio of low control (Wells with 1% DMSO) was calculated as Low control (LC). For one compound, top % is the max value of % Activation.
EC50 values were determined by fitting the data to the standard 4 parameters with Hill Slope using GraphPad Prism software. […] ND: No Determine.

Emax	EC50	Compound
343%	< 100 nM	Cc1cncc(C)c1C#Cc1c(F)cc2[nH]c(-c3cc(C#N)ccc3S(C)(=O)=O)cc(=O)c2c1F [Example 32, 3-(6-((3,5-Dimethylpyridin-4-yl)ethynyl)-5,7-difluoro-4-oxo-1,4-dihydroquinolin-2-yl)-4-(methylsulfonyl)benzonitrile]
	100 to 1000 nM	Cc1ccc(S(C)(=O)=O)c(-c2cc(=O)c3c(F)c(CCC4CCOCC4)c(F)cc3[nH]2)c1 [Example 56, 5,7-Difluoro-2-(5-methyl-2-(methylsulfonyl)phenyl)-6-(2-(tetrahydro-2H-pyran-4-yl)ethyl)quinolin-4(1H)-one]
237%	< 100 nM	CS(=O)(=O)c1ccc(C#N)cc1-c1cc(=O)c2c(F)c(C#Cc3cnc4cccnn34)c(F)cc2[nH]1 [Example 40, 3-(5,7-Difluoro-6-(imidazo[1,2-h]pyridazin-3-ylethynyl)-4-oxo-1,4-dihydroquinolin-2-yl)-4-(methylsulfonyl)benzonitrile]
406%	< 100 nM	Cc1ccc(C#Cc2c(F)cc3[nH]c(-c4cc(C#N)ccc4S(C)(=O)=O)cc(=O)c3c2F)cc1 [Example 39, 3-(5,7-Difluoro-4-oxo-6-(p-tolylethynyl)-1,4-dihydroquinolin-2-yl)-4-(methylsulfonyl)benzonitrile]
	> 1000 nM	Cn1nnnc1Sc1ccc(C#N)cc1-c1cc(=O)c2c(F)cc(F)cc2[nH]1 [Example 54, 3-(5,7-Difluoro-4-oxo-1,4-dihydroquinolin-2-yl)-4-((1-methyl-1H-tetrazol-5-yl)thio)benzonitrile]
266%	< 100 nM	CS(=O)(=O)c1ccc(C#N)cc1-c1cc(=O)c2c(F)c(C#CCCO)c(F)cc2[nH]1 [Example 6, 3-(5,7-Difluoro-6-(4-hydroxybut-1-yn-1-yl)-4-oxo-1,4-dihydroquinolin-2-yl)-4-(methylsulfonyl)benzonitrile]
	< 100 nM	CC(C)(C#Cc1c(F)cc2[nH]c(-c3cc(C#N)ccc3S(C)(=O)=O)cc(=O)c2c1F)S(C)(=O)=O [Example 48, 3-(5,7-Difluoro-6-(3-methyl-3-(methylsulfonyl)but-1-yn-1-yl)-4-oxo-1,4-dihydroquinolin-2-yl)-4-(methylsulfonyl)benzonitrile]
	< 100 nM	CS(=O)(=O)c1ccc(C#N)cc1-c1cc(=O)c2c(F)c(OCC3CCC3)c(F)cc2[nH]1 [Example 26, 3-(6-(Cyclobutylmethoxy)-5,7-difluoro-4-oxo-1,4-dihydroquinolin-2-yl)-4-(methylsulfonyl)benzonitrile]
237%	< 100 nM	COc1nccnc1C#Cc1c(F)cc2[nH]c(-c3cc(C#N)ccc3S(C)(=O)=O)cc(=O)c2c1F [Example 43, 3-(5,7-Difluoro-6-((3-methoxypyrazin-2-yl)ethynyl)-4-oxo-1,4-dihydroquinolin-2-yl)-4-(methylsulfonyl)benzonitrile]
	< 100 nM	CS(=O)(=O)c1ccc(C#N)cc1-c1cc(=O)c2c(F)c(CCC3CCOCC3)c(F)cc2[nH]1 [Example 25, 3-(5,7-Difluoro-4-oxo-6-(2-(tetrahydro-2H-pyran-4-yl)ethyl)-1,4-dihydroquinolin-2-yl)-4-(methylsulfonyl)benzonitrile]
316%	< 100 nM	CC(C)(F)C#Cc1c(F)cc2[nH]c(-c3cc(C#N)ccc3S(C)(=O)=O)cc(=O)c2c1F [Example 23, 3-(5,7-Difluoro-6-(3-fluoro-3-methylbut-1-yn-1-yl)-4-oxo-1,4-dihydroquinolin-2-yl)-4-(methylsulfonyl)benzonitrile]
293%	< 100 nM	Cc1cnccc1C#Cc1c(F)cc2[nH]c(-c3cc(C#N)ccc3S(C)(=O)=O)cc(=O)c2c1F [Example 28, 3-(5,7-Difluoro-6-((3-methylpyridin-4-yl)ethynyl)-4-oxo-1,4-dihydroquinolin-2-yl)-4-(methylsulfonyl)benzonitrile]
249%	< 100 nM	CC1(C#Cc2c(F)cc3[nH]c(-c4cc(C#N)ccc4S(C)(=O)=O)cc(=O)c3c2F)COC1 [Example 45, 3-(5,7-Difluoro-6-((3-methyloxetan-3-yl)ethynyl)-4-oxo-1,4-dihydroquinolin-2-yl)-4-(methylsulfonyl)benzonitrile]
406%	< 100 nM	CS(=O)(=O)c1ccc(C#N)cc1-c1cc(=O)c2c(F)c(C#Cc3ccccc3OC(F)F)c(F)cc2[nH]1 [Example 37, 3-(6-((2-(Difluoromethoxy)phenyl)ethynyl)-5,7-difluoro-4-oxo-1,4-dihydroquinolin-2-yl)-4-(methylsulfonyl)benzonitrile]
